Source: patent publication US6461997B1, “Triazole sulfones having herbicidal activity” (Monsanto Technology LLC, priority 1999, dated 2002)

Experiments:
ALOMY (blackgrass) = assay: Post-emergence herbicidal activity, cool season; assay type: in vivo, Alopecurus myosuroides; conditions: abraded plants sprayed at 300, 100, 30 and 10 g/ha; about 14 days after treatment
Method: (§1) In another set of tests, the post-emergence activity of compounds of this invention was evaluated on the cool season species listed above. The following procedure was used.
(§2) A pre-prepared topsoil mixture (described above) was placed in a pot and compacted to a depth of 1.0 to 1.25 cm from the top of the pot. Seeds of each of several monocotyledonous and dicotyledonous annual plant species were placed on top of the soil. The seeds were covered with a mixture of 50% topsoil and 50% Rediearth™ in sufficient quantity to level-fill the pots. The pots were then placed on a greenhouse bench and subirrigated as needed.
(§3) When plants growing from the seeds had emerged and reached a suitable growth stage for post-emergence treatment, typically 9 to 14 days after planting, above-ground parts of the plants were subjected to a pre-treatment involving abrasion to create greater opportunity for foliar uptake of subsequently applied compounds. Abrasion was performed using garnet 200w particles applied with a Sears Craftsman hand-held sandblaster operated at approximately 850 kPa (50 psig) pressure.
(§4) A known amount of each test compound dissolved or suspended in an appropriate organic solvent was diluted with a 50:50 mix of acetone and water and applied to the plants by spraying with a standard spray nozzle in a spray volume of […] at a spray pressure of 511 kPa (30 psig). Only the compounds of Examples 1, 8-15 and 17-22 were included in post-emergence tests. Application rates for these compounds were 300, 100, 30 and 10 g/ha. Control plants were abraded but not sprayed.
(§5) After treatment the plants were placed in a greenhouse with an 18/13° C. day/night temperature regime and were subsequently watered as needed for growth. Approximately 14 days after treatment, the plants were observed and herbicidal efficacy recorded as percent inhibition by comparison with control plants. GR80 values were assigned for each compound as described above for the pre-emergence tests.

XANST (cocklebur) = assay: Pre-plant incorporated (PPI) herbicidal activity, warm season; assay type: in vivo, Xanthium strumarium; conditions: PPI application
Method: (§6) In another set of tests, the pre-plant incorporated (PPI) activity of compounds of this invention was evaluated on the same species as for the pre-emergence tests described above. In the PPI tests the following procedure, designed to simulate PPI application, was used.
(§7) A pre-prepared topsoil mixture (described above) was placed in a pot and compacted to a depth of 1.0 to 1.25 cm from the top of the pot. Seeds of each of several monocotyledonous and dicotyledonous annual plant species were placed on top of the soil. A sufficient quantity of soil to cover the seeds and level fill the pot was weighed into an open container. A known amount of the test compound was dissolved or suspended in an organic solvent and applied by spraying to this cover soil. The cover soil was thoroughly mixed to distribute the test compound throughout the cover soil, and was then applied as a cover layer over the seeds. Untreated soil was used as a cover layer for control pots. After treatment the plants were placed in a greenhouse where they received 0.64 cm of overhead irrigation. All subsequent watering consisted of a light overhead mist and/or subirrigation as needed for germination and growth. Tables 9 and 10 below relate to warm season plant species which were placed after pre-emergence treatment in a greenhouse with a 30/21° C. day/night temperature regime. Tables 11 and 12 below relates to cool season plant species placed after pre-emergence treatment in a greenhouse or growth chamber with an 18/13° C. day/night temperature regime. Only the compounds of Examples 1, 6, 8, 11, 13 and 15-20 were included in PPI tests.
(§8) Approximately 14 days after planting and treating, the plants were observed and herbicidal efficacy recorded as percent inhibition by comparison with untreated plants.

[1] = system: AGRRE (quackgrass (seedling)); assay: Post-emergence herbicidal activity, cool season; assay type: in vivo, Elymus repens; conditions: abraded plants sprayed at 300, 100, 30 and 10 g/ha; about 14 days after treatment
Method: as §1, §2, §3, §4, §5

BROTE (downy brome) = assay: Post-emergence herbicidal activity, cool season; assay type: in vivo, Bromus tectorum; conditions: abraded plants sprayed at 300, 100, 30 and 10 g/ha; about 14 days after treatment
Method: as §1, §2, §3, §4, §5

[2] = system: PANMI (wild proso millet); assay: Pre-emergence herbicidal activity, warm season; assay type: in vivo, Panicum miliaceum; conditions: GR80 = lowest tested rate (300, 100, 30, 10 g/ha) with 80% or greater inhibition; approx. 14 days after treating; 30/21° C.
How it was run: (§9)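 Seeds sown in sterilised fertilised topsoil received surface-applied compound in 50:50 acetone/water, typically at 300, 100, 30 and 10 g/ha, then greenhouse-grown at 30/21° C (warm-season species) or 18/13° C (cool-season species). Percent inhibition versus untreated plants was scored at about 14 days, giving GR80; an asterisk marks activity short of 80% at the top rate.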

[3] = system: CHEAL (common lambsquarters); assay: Pre-plant incorporated (PPI) herbicidal activity, warm season; assay type: in vivo, Chenopodium album; conditions: for PPI activity (GR80) CHEAL: pre-plant incorporated, GR80 = lowest tested rate with 80% or greater inhibition, approx. 14 days after treating, 30/21° C.; for Percent inhibition CHEAL: PPI application
Method: as §6, §7, §8

[4] = system: AEGCY (jointed goatgrass); assay: Pre-plant incorporated (PPI) herbicidal activity, cool season; assay type: in vivo, Aegilops cylindrica; conditions: for PPI activity GR80, AEGCY: pre-plant incorporated, lowest tested rate with 80% or greater inhibition, about 14 days
Method: as §6, §7, §8

SETVI (green foxtail) = assay: Pre-emergence herbicidal activity, cool season; assay type: in vivo, Setaria viridis; conditions: GR80 = lowest tested rate (300, 100, 30, 10 g/ha) with 80% or greater inhibition; approx. 14 days after treating; 18/13° C.
How it was run: as §9

[5] = system: CIRAR (canada thistle (seedling)); assay: Pre-emergence herbicidal activity, warm season; assay type: in vivo, Cirsium arvense; conditions: GR80 = lowest tested rate (300, 100, 30, 10 g/ha) with 80% or greater inhibition; approx. 14 days after treating; 30/21° C.
How it was run: as §9

[6] = weed, PPI application, 100 g/ha
[7] = weed, PPI application, 300 g/ha
[8] = weed, PPI application, 900 g/ha

| SMILES | Post-emergence activity GR80, ALOMY (ALOMY (blackgrass)) | Post-emergence activity GR80, AGRRE [1] | Post-emergence activity GR80, BROTE (BROTE (downy brome)) | Pre-emergence activity (GR80) PANMI [2] | PPI activity (GR80) CHEAL [3] | PPI activity GR80, AEGCY [4] | Pre-emergence activity (GR80) SETVI (SETVI (green foxtail)) | Pre-emergence activity (GR80) CIRAR [5] | Percent inhibition XANST (XANST (cocklebur); 30 g/ha) | Percent inhibition XANST (XANST (cocklebur); 100 g/ha) | Percent inhibition XANST (XANST (cocklebur); 300 g/ha) | Percent inhibition XANST (XANST (cocklebur); 900 g/ha) | Percent inhibition CHEAL ([3]; 30 g/ha) | Percent inhibition CHEAL ([3]; 100 g/ha) | Percent inhibition CHEAL ([3]; 300 g/ha) | Percent inhibition CHEAL ([3]; 900 g/ha) | Percent inhibition AEGCY ([4]; weed, PPI application, 30 g/ha) | Percent inhibition AEGCY [4, 6] | Percent inhibition AEGCY [4, 7] | Percent inhibition AEGCY [4, 8] | other results |
| --- | --- | --- | --- | --- | --- | --- | --- | --- | --- | --- | --- | --- | --- | --- | --- | --- | --- | --- | --- | --- | --- |
| C=CCC(F)(F)S(=O)(=O)c1ncn(C(=O)N(CC)CC)n1 [Example 17, 1-(N,N-diethylcarbamoyl)-3-[(1,1-difluoro-3-butenyl)sulfonyl]-1,2,4-triazole] | [empty] | [empty] | [empty] | 100 g/ha | 300 g/ha | 100 g/ha | 100 g/ha | – | – | – | – | – | – | – | – | – | – | – | – | – | inhibition at 10 g/ha (XANST (cocklebur); Xanthium strumarium, 10 g/ha, read-out: Percent inhibition XANST): 0%; inhibition at 30 g/ha (XANST (cocklebur); Xanthium strumarium, 30 g/ha, read-out: Percent inhibition XANST): 0%; inhibition at 100 g/ha (XANST (cocklebur); Xanthium strumarium, 100 g/ha, read-out: Percent inhibition XANST): 0%; inhibition at 300 g/ha (XANST (cocklebur); Xanthium strumarium, 300 g/ha, read-out: Percent inhibition XANST): 20%; inhibition at 900 g/ha (XANST (cocklebur); Xanthium strumarium, 900 g/ha, read-out: Percent inhibition XANST): 100%; inhibition at 10 g/ha ([4]; Aegilops cylindrica, weed, PPI application, 10 g/ha, read-out: Percent inhibition AEGCY): 0%; inhibition at 30 g/ha ([4]; Aegilops cylindrica, weed, PPI application, 30 g/ha, read-out: Percent inhibition AEGCY): 0%; inhibition at 100 g/ha ([4]; Aegilops cylindrica, weed, PPI application, 100 g/ha, read-out: Percent inhibition AEGCY): 0%; inhibition at 300 g/ha ([4]; Aegilops cylindrica, weed, PPI application, 300 g/ha, read-out: Percent inhibition AEGCY): 20%; inhibition at 900 g/ha ([4]; Aegilops cylindrica, weed, PPI application, 900 g/ha, read-out: Percent inhibition AEGCY): 40% |
| CCN(CC)C(=O)n1cnc(S(=O)(=O)C(F)(F)C(=O)c2ccccc2)n1 [Example 6] | – | – | – | 300 g/ha | 100 g/ha | [empty] | 300 g/ha | 300 g/ha | – | – | – | – | – | – | – | – | – | – | – | – | – |
| CCN(CC)C(=O)n1cnc(S(=O)(=O)C(F)(F)C(F)(F)SC)n1 [Example 14] | [empty] | [empty] | [empty] | 100 g/ha | – | – | 30 g/ha | 300 g/ha | – | – | – | – | – | – | – | – | – | – | – | – | – |
| CCN(CC)C(=O)n1cnc(S(=O)(=O)C(F)(F)C(F)F)n1 [Example 16] | – | – | – | 30 g/ha | 30 g/ha | 300 g/ha | 300 g/ha | – | 0% | 0% | 0% | 95% | 100% | 100% | 100% | 100% | 0% | 0% | 20% | 60% | Percent inhibition XANST (XANST (cocklebur); 10 g/ha): 0%; Percent inhibition CHEAL ([3]; 10 g/ha): 100%; Percent inhibition AEGCY ([4]; weed, PPI application, 10 g/ha): 0% |
| CCN(CC)C(=O)n1cnc(S(=O)(=O)C(F)(F)C(F)(F)Br)n1 [Example 4] | – | – | – | 100 g/ha | – | – | 30 g/ha | 30 g/ha | 0% | 0% | 0% | 40% | 60% | 100% | 100% | 100% | 0% | 30% | 50% | 30% | – |
| CCN(CC)C(=O)n1cnc(S(=O)(=O)C(F)(F)F)n1 [Example 2] | – | – | – | 30 g/ha | – | – | 30 g/ha | 300 g/ha | 0% | 0% | 0% | 0% | 90% | 95% | 100% | 100% | 0% | 20% | 20% | 70% | – |
| CCN(CC)C(=O)n1cnc(S(=O)(=O)C(F)(F)Cl)n1 [Example 3] | – | – | – | 30 g/ha | – | – | 100 g/ha | 30 g/ha | 0% | 0% | 0% | 60% | 80% | 99% | 100% | 100% | 0% | 50% | 40% | 90% | – |
| CCN(CC)C(=O)n1cnc(S(=O)(=O)C(F)(F)SCCOC)n1 [Example 13] | [empty] | [empty] | [empty] | 300 g/ha | 30 g/ha | [empty] | 100 g/ha | – | 0% | 0% | 0% | 30% | 20% | 100% | 100% | 100% | 0% | 0% | 60% | 40% | Percent inhibition XANST (XANST (cocklebur); 10 g/ha): 0%; Percent inhibition CHEAL ([3]; 10 g/ha): 30%; Percent inhibition AEGCY ([4]; weed, PPI application, 10 g/ha): 0% |
